Assay results as given in ChEMBL document CHEMBL4311999, “3-Hydrazinoisatin-based benzenesulfonamides as novel carbonic anhydrase inhibitors endowed with anticancer activity: Synthesis, in vitro biological evaluation and in silico insights” (Eur J Med Chem, 2019).

Legend:
[1] = tested on: HCT-116; test: Inhibition of clonogenicity in human HCT116 cells assessed as reduction in colony formation treated for 10 days by crystal violet staining; format: functional, cell-based
[2] = tested on: CCRF-CEM; test: Growth inhibition of human CCRF-CEM cells at 10 uM incubated for 48 hrs by sulforhodamine B assay relative to control; format: functional; settings: read-out: GI
[3] = tested on: RPMI-8226; test: Growth inhibition of human RPMI8226 cells at 10 uM incubated for 48 hrs by sulforhodamine B assay relative to control; format: functional; settings: RPMI-8226, 48 h, read-out: GI
[4] = tested on: EKVX; test: Growth inhibition of human EKVX cells at 10 uM incubated for 48 hrs by sulforhodamine B assay relative to control; format: functional; settings: read-out: GI
[5] = tested on: HOP-62; test: Growth inhibition of human HOP62 cells at 10 uM incubated for 48 hrs by sulforhodamine B assay relative to control; format: functional; settings: HOP-62, 48 h, read-out: GI
[6] = tested on: NCI-H23; test: Growth inhibition of human NCI-H23 cells at 10 uM incubated for 48 hrs by sulforhodamine B assay relative to control; format: functional; settings: NCI-H23, 48 h, read-out: GI
[7] = tested on: NCI-H522; test: Growth inhibition of human NCI-H522 cells at 10 uM incubated for 48 hrs by sulforhodamine B assay relative to control; format: functional; settings: NCI-H522, 48 h, read-out: GI
[8] = tested on: COLO 205; test: Growth inhibition of human COLO205 cells at 10 uM incubated for 48 hrs by sulforhodamine B assay relative to control; format: functional; settings: COLO 205, 48 h, read-out: GI
[9] = tested on: HCT-15; test: Growth inhibition of human HCT15 cells at 10 uM incubated for 48 hrs by sulforhodamine B assay relative to control; format: functional; settings: HCT-15, 48 h, read-out: GI
[10] = tested on: HT-29; test: Growth inhibition of human HT-29 cells at 10 uM incubated for 48 hrs by sulforhodamine B assay relative to control; format: functional; settings: HT-29, 48 h, read-out: GI
[11] = tested on: KM12; test: Growth inhibition of human KM12 cells at 10 uM incubated for 48 hrs by sulforhodamine B assay relative to control; format: functional; settings: KM12, 48 h, read-out: GI
[12] = tested on: LOX IMVI; test: Growth inhibition of human LOXIMVI cells at 10 uM incubated for 48 hrs by sulforhodamine B assay relative to control; format: functional; settings: read-out: GI
[13] = tested on: SK-MEL-2; test: Growth inhibition of human SK-MEL-2 cells at 10 uM incubated for 48 hrs by sulforhodamine B assay relative to control; format: functional; settings: SK-MEL-2, 48 h, read-out: GI
[14] = tested on: UO-31; test: Growth inhibition of human UO31 cells at 10 uM incubated for 48 hrs by sulforhodamine B assay relative to control; format: functional; settings: UO-31, 48 h, read-out: GI
[15] = tested on: PC-3; test: Growth inhibition of human PC3 cells at 10 uM incubated for 48 hrs by sulforhodamine B assay relative to control; format: functional; settings: PC-3, 48 h, read-out: GI
[16] = tested on: TK-10; test: Growth inhibition of human TK10 cells at 10 uM incubated for 48 hrs by sulforhodamine B assay relative to control; format: functional; settings: TK-10, 48 h, read-out: GI
[17] = tested on: RXF 393; test: Growth inhibition of human RXF393 cells at 10 uM incubated for 48 hrs by sulforhodamine B assay relative to control; format: functional; settings: RXF 393, 48 h, read-out: GI
[18] = tested on: SK-MEL-28; test: Growth inhibition of human SK-MEL-28 cells at 10 uM incubated for 48 hrs by sulforhodamine B assay relative to control; format: functional; settings: SK-MEL-28, 48 h, read-out: GI
[19] = tested on: SF-268; test: Growth inhibition of human SF268 cells at 10 uM incubated for 48 hrs by sulforhodamine B assay relative to control; format: functional; settings: SF-268, 48 h, read-out: GI
[20] = tested on: SNB-19; test: Growth inhibition of human SNB19 cells at 10 uM incubated for 48 hrs by sulforhodamine B assay relative to control; format: functional; settings: SNB-19, 48 h, read-out: GI
[21] = tested on: MDA-MB-435; test: Growth inhibition of human MDA-MB-435 cells at 10 uM incubated for 48 hrs by sulforhodamine B assay relative to control; format: functional; settings: MDA-MB-435, 48 h, read-out: GI
[22] = tested on: 786-0; test: Growth inhibition of human 786-0 cells at 10 uM incubated for 48 hrs by sulforhodamine B assay relative to control; format: functional; settings: 786-0, 48 h, read-out: GI
[23] = tested on: A498; test: Growth inhibition of human A498 cells at 10 uM incubated for 48 hrs by sulforhodamine B assay relative to control; format: functional; settings: A498, 48 h, read-out: GI
[24] = tested on: UACC-62; test: Growth inhibition of human UACC62 cells at 10 uM incubated for 48 hrs by sulforhodamine B assay relative to control; format: functional; settings: UACC-62, 48 h, read-out: GI
[25] = tested on: BT-549; test: Growth inhibition of human BT549 cells at 10 uM incubated for 48 hrs by sulforhodamine B assay relative to control; format: functional; settings: BT-549, 48 h, read-out: GI
[26] = tested on: MDA-MB-468; test: Growth inhibition of human MDA-MB-468 cells at 10 uM incubated for 48 hrs by sulforhodamine B assay relative to control; format: functional; settings: MDA-MB-468, 48 h, read-out: GI

CCOC(=O)CN1C(=O)/C(=N\Nc2ccc(S(N)(=O)=O)cc2)c2cc(Br)ccc21 was tested, and the inhibition [1] was “Dose-dependent effect”, the inhibition of growth at 10 µM [2] was 47% and the inhibition of growth at 10 µM [3] was 21%. The inhibition of growth at 10 µM [4] was 17%, the inhibition of growth at 10 µM [5] was 35% and the inhibition of growth at 10 µM [6] was 23%. For the same molecule, the inhibition of growth at 10 µM [7] was 29%, the inhibition of growth at 10 µM [8] was 42% and the inhibition of growth at 10 µM [9] was 15%. The inhibition of growth at 10 µM [10] was 36%, the inhibition of growth at 10 µM [11] was 30% and the inhibition of growth at 10 µM [12] was 14%. For the same molecule, the inhibition of growth at 10 µM [13] was 11%, the inhibition of growth at 10 µM [14] was 13% and the inhibition of growth at 10 µM [15] was 29%. For the same molecule, the inhibition of growth at 10 µM [16] was 14%, the inhibition of growth at 10 µM [17] was 57% and the inhibition of growth at 10 µM [18] was 15%.
NS(=O)(=O)c1ccc(N/N=C2\C(=O)N(Cc3ccccc3)c3ccc(Cl)cc32)cc1 was tested, and the inhibition of growth at 10 µM [3] was 10%, the inhibition of growth at 10 µM [5] was 36% and the inhibition of growth at 10 µM [7] was 31%. For the same molecule, the inhibition of growth at 10 µM [9] was 11%, the inhibition of growth at 10 µM [19] was 35% and the inhibition of growth at 10 µM [20] was 59%. It also gave an inhibition of growth at 10 µM [21] of 21%, an inhibition of growth at 10 µM [14] of 19% and an inhibition of growth at 10 µM [15] of 16%. It also gave an inhibition of growth at 10 µM [17] of 55%, an inhibition of growth at 10 µM [22] of 52% and an inhibition of growth at 10 µM [23] of 22%. It also gave an inhibition of growth at 10 µM [24] of 34%, an inhibition of growth at 10 µM [25] of 19% and an inhibition of growth at 10 µM [26] of 17%.
